Assay: xn = mol fraction of the nth substance listed
Details: Liquid; for mass density: Vibrating tube method

CCCO [propan-1-ol] + O
viscosity [mPa·s], Capillary tube (Ostwald / Ubbelohde) method
Details | x1 = 0.1 | x1 = 0.2 | x1 = 0.3 | x1 = 0.4 | x1 = 0.6 | x1 = 0.8 | x1 = 1
523.2 K, 20000 kPa | 0.131 | 0.129 | 0.122 | 0.121 | 0.117 | 0.114 | 0.115
523.2 K, 30000 kPa | 0.138 | 0.139 | 0.134 | 0.134 | 0.132 | 0.13 | 0.134
523.2 K, 40000 kPa | 0.138 | 0.146 | 0.145 | 0.146 | 0.146 | 0.146 | 0.15
573.2 K, 20000 kPa | 0.088 | 0.082 | 0.076 | 0.073 | 0.07 | 0.071 | 0.073
573.2 K, 30000 kPa | 0.092 | 0.09 | 0.085 | 0.084 | 0.082 | 0.083 | 0.085
573.2 K, 40000 kPa | 0.098 | 0.098 | 0.096 | 0.094 | 0.095 | 0.097 | 0.098
618.2 K, 20000 kPa | 0.056 | 0.042 | 0.04 | 0.042 | 0.047 | 0.052 | 0.057
618.2 K, 30000 kPa | 0.077 | 0.07 | 0.066 | 0.065 | 0.066 | 0.07 | 0.073
618.2 K, 40000 kPa | 0.086 | 0.082 | 0.079 | 0.079 | 0.08 | 0.084 | 0.087

mass density [kg/m3]
Details | x1 = 0.1 | x1 = 0.2 | x1 = 0.3 | x1 = 0.4 | x1 = 0.6 | x1 = 0.8 | x1 = 1
523.2 K, 20000 kPa | 733.5 | 682.3 | 648 | 624.3 | 596 | 582.1 | 575.3
523.2 K, 30000 kPa | 749.8 | 702.6 | 672.3 | 651 | 626.2 | 613.3 | 606.8
523.2 K, 40000 kPa | 761.7 | 718.6 | 689.7 | 670.3 | 647.5 | 635.6 | 629.3
573.2 K, 20000 kPa | 637.8 | 576.7 | 538 | 513.7 | 492.5 | 489.6 | 494.3
573.2 K, 30000 kPa | 664.2 | 614.7 | 583 | 564.2 | 545.3 | 540.2 | 540.6
573.2 K, 40000 kPa | 685.8 | 640.9 | 613.2 | 596.3 | 578.8 | 572.6 | 572.1
618.2 K, 20000 kPa | 430.7 | 324.4 | 311.8 | 325.6 | 360.4 | 393.7 | 419.4
618.2 K, 30000 kPa | 557.7 | 504.6 | 479.5 | 469.8 | 469.3 | 480.8 | 491.7
618.2 K, 40000 kPa | 603.6 | 561.4 | 539.6 | 529 | 523.2 | 528 | 534.1

O [water] + CCCO
viscosity [mPa·s], Capillary tube (Ostwald / Ubbelohde) method, x2 = 0
Details | 523.2 K | 573.2 K | 618.2 K
20000 kPa | 0.11 | 0.09 | 0.072
30000 kPa | 0.113 | 0.093 | 0.077
40000 kPa | 0.115 | 0.096 | 0.081

mass density [kg/m3], x2 = 0
Details | 523.2 K | 573.2 K | 618.2 K
20000 kPa | 816.1 | 734.8 | 619.7
30000 kPa | 825.5 | 750.7 | 656.9
40000 kPa | 834.3 | 764.4 | 682.3

O [water] + CCO
viscosity [mPa·s], Capillary tube (Ostwald / Ubbelohde) method, x2 = 0
Details | 523.2 K | 573.2 K | 618.2 K
20000 kPa | 0.11 | 0.09 | 0.072
30000 kPa | 0.113 | 0.093 | 0.077
40000 kPa | 0.115 | 0.096 | 0.081

mass density [kg/m3], x2 = 0
Details | 523.2 K | 573.2 K | 618.2 K
20000 kPa | 816.1 | 734.8 | 619.7
30000 kPa | 825.5 | 750.7 | 656.9
40000 kPa | 834.3 | 764.3 | 682.3

O [water] + CO
viscosity [mPa·s], Pressure drop in straight capillary, x2 = 0
Details | 523.2 K | 573.2 K | 618.2 K
20000 kPa | 0.11 | 0.09 | 0.072
30000 kPa | 0.113 | 0.093 | 0.077
40000 kPa | 0.115 | 0.096 | 0.081

mass density [kg/m3], x2 = 0
Details | 523.2 K | 573.2 K | 618.2 K
20000 kPa | 816.1 | 734.8 | 619.7
30000 kPa | 825.5 | 750.7 | 656.9
40000 kPa | 834.3 | 764.4 | 682.3

Reference: the NIST ThermoML archive (doi:10.1016/j.fluid.2017.09.005)
